According to PubChem BioAssay AID248 (DTP/NCI, 2004):
“And” between values parts separate entries of the source, which are not always exact repeats. Equal values may be shown once. Inconclusive results and toxic doses are left out. Rule as the data show it: active = T/C of 150% or more; inactive = T/C below 125%.

Tested on: L1210 leukemia ip in BDF1 mice, survival T/C
Experiment: NCI In Vivo Anticancer Drug Screen. Data for tumor model L1210 Leukemia (intraperitoneal) in B6D2F1 (BDF1) mice
Settings: endpoint: mean survival time, higher = longer survival
Method in brief: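 Ratio derived from survival: compound-dosed mice over vehicle-dosed mice, all bearing a transplantable tumor.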

[1] = dose: 3.12 mg/kg/injection, schedule: Q01DX009 (ip), vehicle: Klucel (hydroxypropylcellulose) (HPC)
[2] = dose: 100.0 mg/kg/injection, schedule: Q04DX003 (ip), vehicle: saline
[3] = dose: 50.0 mg/kg/injection, schedule: Q01DX001 (ip), vehicle: saline
[4] = dose: 100.0 mg/kg/injection, schedule: Q01DX001 (ip), vehicle: saline
[5] = dose: 200.0 mg/kg/injection, schedule: Q01DX001 (ip), vehicle: saline
[6] = dose: 400.0 mg/kg/injection, schedule: Q01DX001 (ip), vehicle: saline
[7] = dose: 100.0 mg/kg/injection, schedule: Q01DX009 (ip), vehicle: Klucel (hydroxypropylcellulose) (HPC)
[8] = dose: 200.0 mg/kg/injection, schedule: Q01DX009 (ip), vehicle: Klucel (hydroxypropylcellulose) (HPC)
[9] = dose: 400.0 mg/kg/injection, schedule: Q01DX009 (ip), vehicle: Klucel (hydroxypropylcellulose) (HPC)
[10] = dose: 100.0 mg/kg/injection, schedule: Q04DX003 (ip), vehicle: Klucel (hydroxypropylcellulose) (HPC)
[11] = dose: 200.0 mg/kg/injection, schedule: Q04DX003 (ip), vehicle: Klucel (hydroxypropylcellulose) (HPC)
[12] = dose: 400.0 mg/kg/injection, schedule: Q04DX003 (ip), vehicle: Klucel (hydroxypropylcellulose) (HPC)
[13] = dose: 100.0 mg/kg/injection, schedule: Q04DX003 (ip), vehicle: saline with Tween-80

Measured: T/C

CC(=O)[O][Hg][c]1cc(C)c(O)c([N+](=O)[O-])c1
inactive: dose: 1.56 mg/kg/injection, schedule: Q04DX003 (ip), vehicle: Klucel (hydroxypropylcellulose) (HPC) 105 % of control | [1] 95 % of control | dose: 3.12 mg/kg/injection, schedule: Q04DX003 (ip), vehicle: Klucel (hydroxypropylcellulose) (HPC) 115 % of control | dose: 6.25 mg/kg/injection, schedule: Q01DX009 (ip), vehicle: Klucel (hydroxypropylcellulose) (HPC) 96 % of control | dose: 6.25 mg/kg/injection, schedule: Q04DX003 (ip), vehicle: Klucel (hydroxypropylcellulose) (HPC) 117 % of control | dose: 12.5 mg/kg/injection, schedule: Q04DX003 (ip), vehicle: Klucel (hydroxypropylcellulose) (HPC) 109 % of control

C1C2CC3C1C1CN3C21 (configuration not stated)
inactive: dose: 6.25 mg/kg/injection, schedule: Q01DX001 (ip), vehicle: saline 100 % of control | dose: 12.5 mg/kg/injection, schedule: Q01DX001 (ip), vehicle: saline 97 % of control | dose: 25.0 mg/kg/injection, schedule: Q01DX001 (ip), vehicle: saline 111 % of control

COc1ccc2nc3cc(Cl)ccc3c(NCCO)c2c1
inactive: dose: 75.0 mg/kg/injection, schedule: Q01DX001 (ip), vehicle: Klucel (hydroxypropylcellulose) (HPC) 100 % of control | dose: 100.0 mg/kg/injection, schedule: Q01DX001 (ip), vehicle: carboxymethylcellulose (CMC) 100 % of control | [2] 96 % of control | dose: 150.0 mg/kg/injection, schedule: Q01DX001 (ip), vehicle: Klucel (hydroxypropylcellulose) (HPC) 96 % of control | dose: 200.0 mg/kg/injection, schedule: Q01DX001 (ip), vehicle: carboxymethylcellulose (CMC) 100 % of control | dose: 200.0 mg/kg/injection, schedule: Q04DX003 (ip), vehicle: saline 96 % of control | dose: 300.0 mg/kg/injection, schedule: Q01DX001 (ip), vehicle: Klucel (hydroxypropylcellulose) (HPC) 96 % of control | dose: 400.0 mg/kg/injection, schedule: Q01DX001 (ip), vehicle: carboxymethylcellulose (CMC) 108 % of control | dose: 400.0 mg/kg/injection, schedule: Q04DX003 (ip), vehicle: saline 89 % of control

CC(C)Cc1nc2c([nH]1)c(=O)n(C)c(=O)n2C
inactive: [3] 96 % of control | [4] 104 % of control | [5] 98 % of control

O=[N+]([O-])c1ccc(NCCO)cc1
inactive: [3] 96 % of control | [4] 96 % of control | [5] 102 % of control | [6] 96 % of control

[NH-]CC(=O)[N-]CC(=O)O.[NH-]CC(=O)[N-]CC(=O)O.[Ni]
inactive: dose: 25.0 mg/kg/injection, schedule: Q01DX009 (ip), vehicle: saline 86 % of control | dose: 25.0 mg/kg/injection, schedule: Q04DX003 (ip), vehicle: saline 107 % of control | dose: 50.0 mg/kg/injection, schedule: Q04DX003 (ip), vehicle: saline 116 % of control | [2] 98 % of control and 92 % of control

CC(C)=NNC(=O)Nc1ccc(C)c(Cl)c1
inactive: dose: 50.0 mg/kg/injection, schedule: Q01DX001 (ip), vehicle: Klucel (hydroxypropylcellulose) (HPC) 90 % of control | dose: 100.0 mg/kg/injection, schedule: Q01DX001 (ip), vehicle: Klucel (hydroxypropylcellulose) (HPC) 103 % of control and 90 % of control | [7] 102 % of control | dose: 100.0 mg/kg/injection, schedule: Q04DX002 (ip), vehicle: Klucel (hydroxypropylcellulose) (HPC) 101 % of control and 86 % of control | dose: 200.0 mg/kg/injection, schedule: Q01DX001 (ip), vehicle: Klucel (hydroxypropylcellulose) (HPC) 92 % of control | [8] 93 % of control | dose: 200.0 mg/kg/injection, schedule: Q04DX002 (ip), vehicle: Klucel (hydroxypropylcellulose) (HPC) 98 % of control and 100 % of control | dose: 400.0 mg/kg/injection, schedule: Q01DX001 (ip), vehicle: Klucel (hydroxypropylcellulose) (HPC) 87 % of control | [9] 86 % of control | dose: 400.0 mg/kg/injection, schedule: Q04DX002 (ip), vehicle: Klucel (hydroxypropylcellulose) (HPC) 95 % of control and 89 % of control

CC(=O)c1ccc(OC(=O)Nc2cc([N+](=O)[O-])ccc2F)cc1
inactive: [10] 98 % of control | [11] 101 % of control | [12] 95 % of control

C/C(Cc1ccccc1)=N\O
inactive: dose: 59.0 mg/kg/injection, schedule: Q01DX009 (ip), vehicle: saline with Tween-80 107 % of control | dose: 100.0 mg/kg/injection, schedule: Q01DX009 (ip), vehicle: saline with Tween-80 104 % of control | dose: 118.0 mg/kg/injection, schedule: Q01DX009 (ip), vehicle: saline with Tween-80 109 % of control | dose: 236.0 mg/kg/injection, schedule: Q01DX009 (ip), vehicle: saline with Tween-80 103 % of control | dose: 400.0 mg/kg/injection, schedule: Q01DX009 (ip), vehicle: saline with Tween-80 97 % of control

CCCCCCCCCCCCCCCCCC[N+]1(C)CCC1C (configuration not stated)
inactive: dose: 0.78 mg/kg/injection, schedule: Q04DX003 (ip), vehicle: saline 102 % of control | dose: 1.56 mg/kg/injection, schedule: Q04DX003 (ip), vehicle: saline 101 % of control

c1cc[c]([Pb]([S]c2ccccn2)([c]2ccccc2)[c]2ccccc2)cc1
inactive: dose: 0.78 mg/kg/injection, schedule: Q01DX009 (ip), vehicle: Klucel (hydroxypropylcellulose) (HPC) 96 % of control | dose: 1.56 mg/kg/injection, schedule: Q01DX009 (ip), vehicle: Klucel (hydroxypropylcellulose) (HPC) 94 % of control | [1] 106 % of control and 89 % of control | dose: 25.0 mg/kg/injection, schedule: Q04DX002 (ip), vehicle: Klucel (hydroxypropylcellulose) (HPC) 100 % of control | dose: 50.0 mg/kg/injection, schedule: Q04DX002 (ip), vehicle: Klucel (hydroxypropylcellulose) (HPC) 88 % of control

N#Cc1ccc(CCc2ccc(Cl)cc2)cc1
inactive: [3] 94 % of control | [4] 95 % of control | [5] 101 % of control | [6] 92 % of control

Cc1nc2nc(Cl)c(Cl)nc2[nH]1
inactive: dose: 25.0 mg/kg/injection, schedule: Q04DX003 (ip), vehicle: saline with Tween-80 92 % of control | dose: 50.0 mg/kg/injection, schedule: Q04DX003 (ip), vehicle: saline with Tween-80 97 % of control | [10] 102 % of control | [13] 89 % of control

NC(=O)c1ccc(OC(F)(F)C(F)Cl)cc1OC(F)(F)C(F)Cl (configuration not stated)
inactive: [13] 98 % of control | dose: 400.0 mg/kg/injection, schedule: Q04DX003 (ip), vehicle: saline with Tween-80 102 % of control

CN(CC(=O)O)Cc1oc(CO)cc(=O)c1O
inactive: [4] 110 % of control | [5] 95 % of control | [6] 95 % of control

CC[Si](CC)(CC)O[Si](CC)(CC)CC
inactive: dose: 100.0 mg/kg/injection, schedule: Q04DX002 (ip), vehicle: saline 102 % of control | dose: 200.0 mg/kg/injection, schedule: Q04DX002 (ip), vehicle: saline 94 % of control | dose: 400.0 mg/kg/injection, schedule: Q04DX002 (ip), vehicle: saline 97 % of control

Cc1ccccc1OCC(Cl)CN(C)C (configuration not stated)
inactive: [4] 100 % of control | [5] 102 % of control

Cc1ncc(C(=O)Nc2ccccc2)[nH]1
inactive: [7] 113 % of control | [10] 105 % of control | [8] 106 % of control | [11] 122 % of control

O=C1CC(c2ccccc2)(c2ccccc2)c2ccccc21
inactive: dose: 25.6 mg/kg/injection, schedule: Q04DX002 (ip), vehicle: saline with Tween-80 98 % of control | dose: 64.0 mg/kg/injection, schedule: Q04DX002 (ip), vehicle: saline with Tween-80 102 % of control | dose: 160.0 mg/kg/injection, schedule: Q04DX002 (ip), vehicle: saline with Tween-80 91 % of control | dose: 400.0 mg/kg/injection, schedule: Q04DX002 (ip), vehicle: saline with Tween-80 96 % of control

O=C1c2cc(Cl)ccc2-c2c1cc(Cl)cc2[N+](=O)[O-]
inactive: [10] 100 % of control | [11] 104 % of control | [12] 98 % of control

O=[N+]([O-])c1ccc(C2OC2c2ccccc2)cc1 (configuration not stated)
inactive: [7] 101 % of control | [10] 100 % of control | [8] 95 % of control | [11] 95 % of control | [9] 95 % of control | [12] 97 % of control

COC(=O)CCCc1c[nH]c2ccccc12
inactive: dose: 100.0 mg/kg/injection, schedule: Q01DX009 (ip), vehicle: other 93 % of control | dose: 200.0 mg/kg/injection, schedule: Q01DX009 (ip), vehicle: other 100 % of control | dose: 400.0 mg/kg/injection, schedule: Q01DX009 (ip), vehicle: other 90 % of control
